{"source": "patent US20180078576A1", "about": "“SULPHATED XYLANS FOR TREATMENT OR PROPHYLAXIS OF RESPIRATORY DISEASES” (Paradigm Biopharmaceuticals Limited, priority 2007, published 2018)", "key": {"eotaxin-2": {"molecular_target": "T1, eotaxin-2 (Homo sapiens, UniProt O00175)", "T1 sequence (O00175 27-119)": "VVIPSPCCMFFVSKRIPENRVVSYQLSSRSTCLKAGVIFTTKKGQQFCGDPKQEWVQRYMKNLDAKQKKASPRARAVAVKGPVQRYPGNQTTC", "experiment": "BIAcore inhibition of eotaxin-2 binding to immobilized heparin", "conditions": "BIAcore chip, FIG. 3E", "source_text": "The optical phenomenon of surface plasmon resonance is used to monitor physical interactions between molecules. Passing a solution of a potential protein ligand (e.g. IL-4, IL-5 or eotaxin) over a sensor surface to which a target (e.g. heparin) is coupled monitors the real-time binding of protein ligands to the immobilized target. Detection is achieved by measuring refractive index changes very close to the sensor surface. When the refractive index is altered, the angle at which plasmon resonance occurs changes and this change directly correlates with the amount of protein interacting with the surface. A BIAcore 2000 is conveniently used. […]\nBiotinylated heparin is immobilized on the biosensor chip. […] Solutions containing potential protein ligands of interest are injected over the sensor chip surface, and the binding is measured in real time (Fernig, In: Proteoglycan protocols, Ed. R. V. Iozzo, Humana Press, Totowa, N.J., USA, 2001). Baculovirus expressed recombinant human IL-4 (rhIL-4) and baculovirus expressed recombinant human IL-5 (rhIL-5) readily bind to heparin immobilized by this method (see PCT/AU2005/000551). […] Similarly, recombinant human eotaxin (CCL11) expressed in E. coli binds readily to immobilized heparin and binding is specific as there is little eotaxin binding to sensor chips lacking heparin. […]"}, "Human leukocyte elastase": {"molecular_target": "T2, Human leukocyte elastase (Homo sapiens, UniProt P08246)", "T2 sequence (P08246 30-267)": "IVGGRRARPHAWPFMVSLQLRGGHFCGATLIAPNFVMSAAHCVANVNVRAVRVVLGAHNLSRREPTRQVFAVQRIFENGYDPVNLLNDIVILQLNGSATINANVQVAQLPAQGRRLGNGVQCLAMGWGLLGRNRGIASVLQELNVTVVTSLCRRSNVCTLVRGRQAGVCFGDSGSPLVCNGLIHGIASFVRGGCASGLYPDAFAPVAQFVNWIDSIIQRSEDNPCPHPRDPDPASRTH", "experiment": "Elastase assay with fluorogenic substrate", "assay_type": "biochemical", "conditions": "fluorogenic substrate MeOSuc-Ala-Ala-Pro-Val-amido-methylcoumarin, pH 7.4, 37° C., 60 minutes; read-out: IC50, inhibition of human leukocyte elastase activity", "method": "Elastase is a protein that is a potential target for the treatment of COPD. Elastase assays were performed in 96-well plastic microplates for easy quantification by the fluorescent plate reader. Human leukocyte elastase (5 nM/well) was incubated in the presence of absence of pentosan polysulfate, or other sulfated polysaccharides, with the fluorogenic substrate MeOSuc-Ala-Ala-Pro-Val-amido-methylcoumarin (20 μM/well) in a sodium phosphate buffer, pH 7.4. The mixture was incubated at 37° C. for 60 minutes before the reaction was stopped by the addition of 10 μl/well of […] acetic acid and the mixture transferred to a 96-well microplate with fluorescence being measured using an excitation wavelength of 355 nm and an emission wavelength of 460 nm. Various concentrations of inhibitors were used to allow the calculation of the concentration of polysaccharide required to inhibit enzyme activity by 50% (IC50)."}, "[1]": {"tested_on": "guinea pigs sensitized with ovalbumin (OVA) and challenged intranasally with OVA", "experiment": "Allergic rhinitis model in the guinea pig (OVA)", "assay_type": "in vivo", "method": "An allergic rhinitis model in the guinea pig was used. The guinea pigs are sensitized to ovalbumin (OVA) twice (on days 0 and 7) by an intraperitoneal injection of 0.5 ml saline containing 100 mg Al(OH)3 and 2 μg OVA. Three weeks after the last sensitization, animals are anaesthetized and the exposure of the nasal cavity to allergen is performed by dropping OVA solution at 20 mg/ml into bilateral nasal cavities. For the negative control the animals receive sensitization and challenge with saline. The animals are pretreated with either vehicle or drug (pentosan polysulfate or Budesonide) 30 min prior to intranasal instillation of OVA. Vehicle or drugs are administered, 25 μl-50 μl/nostril. A comparison of the pentosan polysulfate with Budesomde, as the reference compound, is included. Animals are terminated and all parameters measured eight hours after the provocation.\nThe nasal mucosal barrier permeability is assessed by measuring the leakage of protein-rich and non-sieved plasma into the nasal cavities. The amount of extravasated plasma is indicated as nasal lavage levels of total protein or albumin. Nasal lavage fluid is collected by gently rinsing the nasal cavities with phosphate buffered saline. The cells in this fluid are centrifuged and resuspended in phosphate buffered saline and counted using a semiautomated haematology analyzer. The cell composition of the nasal lavage is determined after a cytospin and staining with May Grynwald Giemsa."}, "[2]": {"tested_on": "Guinea pigs sensitized to OVA and challenged with inhaled OVA", "experiment": "Second guinea pig asthma model, parameters 8 hours after OVA inhalation", "assay_type": "in vivo", "method": "A slightly different animal model was also examined. In this model Guinea pigs were sensitized to OVA twice by an intraperitoneal injection of 0.5 ml saline containing 20 mg Al(OH)3 and 20 μg OVA. The sensitizations are performed on days 0 and 7. Three weeks after the last sensitization, animals were pre-treated with either vehicle or drugs 30 min prior to inhalation of OVA (at 10 mg/ml) for 6 min (allergen challenge). For the negative control, animals received either sensitization and challenge with saline or sensitization with saline and challenge with OVA. Animals were terminated and all parameters measured 8 hours after the provocation. Vehicle or drugs were administered intra-tracheally, 1 ml/kg body weight, 30 min before the intra-tracheal challenge with OVA. The vehicle for compounds was saline. Budesonide as the reference compound was dissolved in the vehicle at concentrations of 1 mg/ml. To measure airway resistance (RL.) and lung compliance (Cdyn) bronchoconstriction was evoked with aerosolized methacholine (3 mg/ml, 10 mg/ml and 30 mg/ml). The difference between baseline readings and that obtained after methacholine were used to calculate Cdyn and RL. Bronchoalveolar lavage (BAL) was performed immediately after the lung function measurements. BAL was analysed for protein content (as a measure of leakage) and leukocyte number, differential cell counts were performed to indicate what subsets of leukocytes were best affected by the drugs."}}}
{"substance": "Pentosan polysulfate [PPS]", "values": [{"measurement": "IC50", "setting": "eotaxin-2", "result": "~15", "unit": "nM"}, {"measurement": "IC50", "setting": "Human leukocyte elastase", "result": "~1800", "unit": "nM"}, {"measurement": "Leukocyte infiltration into nasal lavage fluid (total white cell numbers)", "setting": "[1]; 8 hours after intranasal OVA challenge, FIG. 12", "result": "inhibited leukocyte infiltration at all the concentrations tested"}, {"measurement": "Protein content of nasal lavage fluid (plasma exudation)", "setting": "[1]; 8 hours after intranasal OVA challenge, drug intranasal 30 min before, FIG. 11", "result": "significantly reduced"}, {"measurement": "Cellular infiltrate in nasal lavage fluid", "setting": "[1]; drugs at 5 mg/kg, FIG. 13", "result": "markedly reduced"}, {"measurement": "Inhibition of RL (airway resistance)", "setting": "[2]; 0.5 mg/kg, FIG. 15A", "result": 103, "unit": "%"}, {"measurement": "Inhibition of RL (airway resistance)", "setting": "[2]; 2.4 mg/kg, FIG. 15A", "result": 94, "unit": "%"}, {"measurement": "Inhibition of RL (airway resistance)", "setting": "[2]; 10 mg/kg, FIG. 15A", "result": 100, "unit": "%"}, {"measurement": "Total number of infiltrating leukocytes in the bronchoalveolar fluid (in words)", "setting": "[2]; 0.1, 0.5, 2.5, 10 mg/kg intra-tracheal, FIG. 14B", "result": "significantly reduced"}, {"measurement": "Total protein content in the bronchoalveolar fluid", "setting": "[2]; 0.1, 0.5, 2.5, 10 mg/kg intra-tracheal, all except 0.1 mg/kg significant (P<0.05), dose dependent, FIG. 14A", "result": "significantly reduced"}, {"measurement": "Inhibitory effect on RL (airway resistance)", "setting": "[2]; all doses, after 10 mg/ml methacholine, FIG. 15A", "result": "more than 90%"}, {"measurement": "Effect on alterations of lung compliance (Cdyn)", "setting": "[2]; represented as an increase in lung compliance, FIG. 15B", "result": "Inhibitory effects"}]}
